Assay results from patent publication US12365656B2, “Oxazolidinone compounds and methods of use thereof as antibacterial agents” (priority 2019, dated 2025).
Converted amounts (≈) assume the structure as drawn. Where two headings read alike, the source gives them in different places.

What was measured:
Assay type in all cases: cell-based
[1] = system: mitochondrial protein synthesis in HepG2 cells; assay: Mitochondrial protein synthesis assay; conditions: Homo sapiens, 96 h, 4 days, COX-1 relative to SDH-A / Janus Green, In Cell ELISA, read-out: MPS IC50
[2] = system: Mycobacterium tuberculosis (Mtb-GFP; H37Rv pMSP12::GFP); assay: microbe, parasite or virus in culture; conditions: Mycobacterium tuberculosis, H37RV, 168 h, pH 6.8, read-out: Mtb Glu MITC95
[3] = system: Mycobacterium tuberculosis (Mtb-GFP; H37Rv pMSP12::GFP); assay: microbe, parasite or virus in culture; conditions: Mycobacterium tuberculosis, H37RV, 168 h, pH 6.8, read-out: Mtb Cho MITC95

Row | SMILES | IC50 [1] [µM] | MIC [2] [µM] | MIC [3] [µM]
1 | O=C1O[C@@H](CO)CN1c1cc(F)c(C2(F)CCS(=O)(=O)CC2)c(Cl)c1 [Example 30, 4-{2-chloro-6-fluoro-4-[(5R)-5-(hydroxymethyl)-2-oxo-1,3-oxazolidin-3-yl]phenyl}-4-fluoro-1λ^6-thiane-1,1-dione] | > 100 | 6.3 (≈ 2.49 µg/mL) | 13 (≈ 5.15 µg/mL)
2 | O=C1O[C@@H](CO)CN1c1ccc(C2(F)CCS(=O)(=O)CC2)c(Cl)c1 [Example 31, 4-{2-chloro-4-[(5R)-5-(hydroxymethyl)-2-oxo-1,3-oxazolidin-3-yl]phenyl}-4-fluoro-1λ^6-thiane-1,1-dione] | > 100 | 13 (≈ 4.91 µg/mL) | 13 (≈ 4.91 µg/mL)
3 | O=C1O[C@@H](CO)CN1c1ccc(-c2ccc(S(=O)(=O)C3CC3)cc2)cc1 [Example 32, (5R)-3-[4′-(cyclopropanesulfonyl)[1,1′-biphenyl]-4-yl]-5-(hydroxymethyl)-1,3-oxazolidin-2-one] | 30 | 3.1 (≈ 1.16 µg/mL) | 3.1 (≈ 1.16 µg/mL)
4 | O=C1O[C@@H](CO)CN1c1ccc(-c2ccc(S(=O)(=O)C3COC3)cc2)cc1 [Example 33, (5R)-5-(hydroxymethyl)-3-[4′-(oxetane-3-sulfonyl)[1,1′-biphenyl]-4-yl]-1,3-oxazolidin-2-one] | 9.7 | 3.1 (≈ 1.21 µg/mL) | 2.3 (≈ 0.896 µg/mL)
5 | Cc1cc(N2C[C@H](CO)OC2=O)ccc1C1(F)CCS(=O)(=O)CC1 [Example 35, 4-fluoro-4-{4-[(5R)-5-(hydroxymethyl)-2-oxo-1,3-oxazolidin-3-yl]-2-methylphenyl}-1λ^6-thiane-1,1-dione] | > 100 | 25 (≈ 8.94 µg/mL) | 50 (≈ 17.9 µg/mL)
6 | O=C1O[C@@H](CO)CN1c1ccc(C2(F)CCS(=O)(=O)CC2)cc1 [Example 36, 4-fluoro-4-{4-[(5R)-5-(hydroxymethyl)-2-oxo-1,3-oxazolidin-3-yl]phenyl}-1λ^6-thiane-1,1-dione] | > 50 | 50 (≈ 17.2 µg/mL) | 38 (≈ 13 µg/mL)
7 | O=C1O[C@@H](CO)CN1c1ccc(C2(F)CCS(=O)(=O)CC2)c(C(F)(F)F)c1 [Example 37, 4-fluoro-4-{4-[(5R)-5-(hydroxymethyl)-2-oxo-1,3-oxazolidin-3-yl]-2-(trifluoromethyl)phenyl}-1λ^6-thiane-1,1-dione] | > 100 | 50 (≈ 20.6 µg/mL) | 50 (≈ 20.6 µg/mL)
8 | O=C1O[C@@H](CO)CN1c1ccc(-c2ccc(S(=O)(=O)N3CCC3)cc2)c(F)c1 [Example 38, (5R)-3-[4′-(azetidine-1-sulfonyl)-2-fluoro[1,1′-biphenyl]-4-yl]-5-(hydroxymethyl)-1,3-oxazolidin-2-one] | > 13 | 6.3 (≈ 2.56 µg/mL) | 6.3 (≈ 2.56 µg/mL)
9 | CS(=O)(=O)Cc1ccc(-c2ccc(N3C[C@H](CO)OC3=O)cc2F)cc1 [Example 39] | 1.5 | 1.6 (≈ 0.607 µg/mL) | 1.2 (≈ 0.455 µg/mL)
10 | CC1(c2c(F)cc(N3C[C@H](CO)OC3=O)cc2F)CCS(=O)(=O)CC1 [Example 41, 4-{2,6-difluoro-4-[(5R)-5-(hydroxymethyl)-2-oxo-1,3-oxazolidin-3-yl]phenyl}-4-methyl-lλ^6-thiane-1,1-dione] | > 100 | 6.3 (≈ 2.36 µg/mL) | 9.4 (≈ 3.53 µg/mL)
11 | CC(=O)NC[C@H]1CN(c2ccc(N3CCOCC3)c(F)c2)C(=O)O1 [linezolid, reference compound] | 8 | 4.58 (≈ 1.55 µg/mL) | 3.14 (≈ 1.06 µg/mL)
